For assay [1], the target named is Macrophage colony-stimulating factor 1 receptor (Homo sapiens) (UniProt P07333). In words: Residual activity of human Fms at 1 uM relative to control.
For assay [2], the species on record is Homo sapiens. In words: Residual activity of human PKBgamma at 1 uM relative to control.
In assay [3] the target is Protein kinase C alpha type (Homo sapiens) (UniProt P17252). In words: Residual activity of human PKCalpha at 1 uM relative to control.
Assay [4] deals with Protein kinase C gamma type (Homo sapiens) (UniProt P05129). As to the kind of experiment: Residual activity of human PKCgamma at 1 uM relative to control.
Assay [5] addresses Glycogen synthase kinase-3 beta (Homo sapiens, UniProt P49841). As to the kind of experiment: Residual activity of human GSK3-beta at 1 uM relative to control.
Assay [6] addresses Tyrosine-protein kinase ABL1 (Mus musculus) (UniProt P00520). In words: Residual activity of mouse Abl kinase at 1 uM relative to control.
Assay [7] is filed under the species Homo sapiens. In words: Residual activity of human CDK3/Cyclin E at 1 uM relative to control.
Assay [8] is described as follows: Inhibition of MEK1 at 1 uM relative to control; values are per cent of control. The following applies: Homo sapiens.
Assay [9] addresses Casein kinase I isoform delta (Homo sapiens) (UniProt P48730). As to the kind of experiment: Inhibition of CK1delta at 1 uM relative to control; values are per cent of control.
Assay [10] deals with Tyrosine-protein kinase BTK (Homo sapiens) (UniProt Q06187). As to the kind of experiment: Inhibition of human BTK at 1 uM relative to control; values are per cent of control.
Sequence of Tyrosine-protein kinase BTK (Homo sapiens) (Q06187 whole entry): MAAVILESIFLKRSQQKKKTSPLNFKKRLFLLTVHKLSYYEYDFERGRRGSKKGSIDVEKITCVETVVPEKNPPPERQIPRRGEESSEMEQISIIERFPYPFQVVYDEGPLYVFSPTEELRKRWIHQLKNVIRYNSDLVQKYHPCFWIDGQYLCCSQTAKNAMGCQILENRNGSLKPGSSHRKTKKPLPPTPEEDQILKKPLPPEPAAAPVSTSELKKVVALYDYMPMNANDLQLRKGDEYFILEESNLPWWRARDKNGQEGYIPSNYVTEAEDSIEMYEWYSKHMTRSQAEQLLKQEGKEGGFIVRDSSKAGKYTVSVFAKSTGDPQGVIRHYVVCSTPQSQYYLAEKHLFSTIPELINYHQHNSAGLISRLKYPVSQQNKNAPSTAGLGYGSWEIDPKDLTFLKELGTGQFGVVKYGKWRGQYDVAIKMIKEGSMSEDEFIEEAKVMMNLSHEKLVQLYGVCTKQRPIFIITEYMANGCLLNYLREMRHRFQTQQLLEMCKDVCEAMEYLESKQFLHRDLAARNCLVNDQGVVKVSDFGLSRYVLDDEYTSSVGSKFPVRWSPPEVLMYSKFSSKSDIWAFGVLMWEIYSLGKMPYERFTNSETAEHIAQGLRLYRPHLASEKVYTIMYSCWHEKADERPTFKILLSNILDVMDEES
For a further assay, the species on record is Rattus norvegicus. As to the kind of experiment: Inhibition of rat CaMK2 at 1 uM relative to control; values are per cent of control.
Assay [11] deals with T1, Serine/threonine-protein kinase Sgk1 (Homo sapiens) (UniProt O00141).
T1 sequence (whole entry): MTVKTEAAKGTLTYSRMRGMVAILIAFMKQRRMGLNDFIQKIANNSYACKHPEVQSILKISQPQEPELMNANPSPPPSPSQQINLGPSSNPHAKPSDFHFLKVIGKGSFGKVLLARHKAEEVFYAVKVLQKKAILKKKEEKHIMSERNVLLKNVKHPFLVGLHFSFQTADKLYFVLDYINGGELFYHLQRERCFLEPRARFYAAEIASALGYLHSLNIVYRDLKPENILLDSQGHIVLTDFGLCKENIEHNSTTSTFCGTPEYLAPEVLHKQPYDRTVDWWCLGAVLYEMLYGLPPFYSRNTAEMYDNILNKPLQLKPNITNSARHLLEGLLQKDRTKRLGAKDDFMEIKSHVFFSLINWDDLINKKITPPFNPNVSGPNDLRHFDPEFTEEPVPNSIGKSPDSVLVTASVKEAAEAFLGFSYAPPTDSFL
In words: Inhibition of human SGK at 1 uM relative to control; values are per cent of control.

For assay [12], the target named is T2, Serine/threonine-protein kinase 3 (Homo sapiens) (UniProt Q13188).
T2 sequence (whole entry): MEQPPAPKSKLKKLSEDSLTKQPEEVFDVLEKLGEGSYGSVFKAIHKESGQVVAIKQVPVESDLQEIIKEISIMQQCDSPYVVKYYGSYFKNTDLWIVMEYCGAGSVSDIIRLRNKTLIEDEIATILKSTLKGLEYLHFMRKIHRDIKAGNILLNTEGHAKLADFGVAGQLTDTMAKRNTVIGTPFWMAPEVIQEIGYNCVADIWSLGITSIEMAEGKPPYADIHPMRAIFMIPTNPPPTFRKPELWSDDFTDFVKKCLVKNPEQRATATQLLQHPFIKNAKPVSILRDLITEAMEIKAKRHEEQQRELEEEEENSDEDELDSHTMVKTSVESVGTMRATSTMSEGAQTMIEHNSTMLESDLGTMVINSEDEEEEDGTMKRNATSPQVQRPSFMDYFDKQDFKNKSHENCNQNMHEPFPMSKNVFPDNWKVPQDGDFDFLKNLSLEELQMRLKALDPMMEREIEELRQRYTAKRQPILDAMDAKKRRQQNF
As to the kind of experiment: Inhibition of human MST2 at 1 uM relative to control; values are per cent of control.

Assay [13] has as its target Serine/threonine-protein kinase PAK 2 (Homo sapiens) (UniProt Q13177). As to the kind of experiment: Inhibition of human PAK2 at 1 uM relative to control; values are per cent of control.
Assay [14] has as its target Ribosomal protein S6 kinase alpha-3 (Homo sapiens) (UniProt P51812). In words: Inhibition of human Rsk3 at 1 uM relative to control; values are per cent of control.
The target of assay [15] is Rho-associated protein kinase 2 (Homo sapiens) (UniProt O75116). In words: Inhibition of human ROCK2 at 1 uM relative to control; values are per cent of control.
Assay [16] has as its target T3, Mitogen-activated protein kinase 13 (Homo sapiens) (UniProt O15264).
T3 sequence (whole entry): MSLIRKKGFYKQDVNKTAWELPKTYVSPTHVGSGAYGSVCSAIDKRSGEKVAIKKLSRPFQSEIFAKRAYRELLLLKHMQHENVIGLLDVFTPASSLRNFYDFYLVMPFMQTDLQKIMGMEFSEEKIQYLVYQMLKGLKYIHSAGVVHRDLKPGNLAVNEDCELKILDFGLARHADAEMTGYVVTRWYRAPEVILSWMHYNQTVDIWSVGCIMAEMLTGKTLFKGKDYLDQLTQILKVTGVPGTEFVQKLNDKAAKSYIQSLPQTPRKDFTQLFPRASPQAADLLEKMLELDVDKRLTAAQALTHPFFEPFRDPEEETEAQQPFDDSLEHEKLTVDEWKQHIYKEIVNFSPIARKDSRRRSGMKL
As to the kind of experiment: Inhibition of human SAPK4 at 1 uM relative to control; values are per cent of control.

In assay [17] the target is Cyclin-dependent kinase 5/CDK5 activator 1 (Homo sapiens) (UniProt Q00535+Q15078). As to the kind of experiment: Inhibition of human CDK5/p35 at 1 uM relative to control; values are per cent of control.
Sequence of Cyclin-dependent kinase 5/CDK5 activator 1 (Homo sapiens) (Q00535 whole entry): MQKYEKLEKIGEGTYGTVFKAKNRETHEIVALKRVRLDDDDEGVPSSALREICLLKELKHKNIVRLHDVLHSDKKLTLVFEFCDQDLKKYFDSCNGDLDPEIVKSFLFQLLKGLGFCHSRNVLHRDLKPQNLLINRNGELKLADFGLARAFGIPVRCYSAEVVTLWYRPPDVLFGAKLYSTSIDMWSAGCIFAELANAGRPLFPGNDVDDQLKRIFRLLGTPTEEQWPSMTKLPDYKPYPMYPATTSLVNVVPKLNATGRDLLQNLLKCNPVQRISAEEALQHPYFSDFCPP
Sequence of Cyclin-dependent kinase 5/CDK5 activator 1 (Homo sapiens) (Q15078 99-307 partner limits assumed): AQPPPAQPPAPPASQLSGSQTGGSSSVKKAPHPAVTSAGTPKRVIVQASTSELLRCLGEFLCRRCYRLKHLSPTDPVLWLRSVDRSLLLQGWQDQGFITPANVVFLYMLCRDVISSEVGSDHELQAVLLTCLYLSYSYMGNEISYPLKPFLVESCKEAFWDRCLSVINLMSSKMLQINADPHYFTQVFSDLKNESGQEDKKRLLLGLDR
Assay [18] concerns the target Protein kinase C delta type (Homo sapiens) (UniProt Q05655). In words: Inhibition of human PKCdelta at 1 uM relative to control; values are per cent of control.
Assay [19] addresses Proto-oncogene tyrosine-protein kinase ROS (Homo sapiens) (UniProt P08922). In words: Inhibition of human Ros kinase at 1 uM relative to control; values are per cent of control.
For assay [20], the target named is BDNF/NT-3 growth factors receptor (Homo sapiens, UniProt Q16620). In words: Residual activity of human TrkB at 1 uM relative to control.
Sequence of BDNF/NT-3 growth factors receptor (Q16620 32-822 limits assumed): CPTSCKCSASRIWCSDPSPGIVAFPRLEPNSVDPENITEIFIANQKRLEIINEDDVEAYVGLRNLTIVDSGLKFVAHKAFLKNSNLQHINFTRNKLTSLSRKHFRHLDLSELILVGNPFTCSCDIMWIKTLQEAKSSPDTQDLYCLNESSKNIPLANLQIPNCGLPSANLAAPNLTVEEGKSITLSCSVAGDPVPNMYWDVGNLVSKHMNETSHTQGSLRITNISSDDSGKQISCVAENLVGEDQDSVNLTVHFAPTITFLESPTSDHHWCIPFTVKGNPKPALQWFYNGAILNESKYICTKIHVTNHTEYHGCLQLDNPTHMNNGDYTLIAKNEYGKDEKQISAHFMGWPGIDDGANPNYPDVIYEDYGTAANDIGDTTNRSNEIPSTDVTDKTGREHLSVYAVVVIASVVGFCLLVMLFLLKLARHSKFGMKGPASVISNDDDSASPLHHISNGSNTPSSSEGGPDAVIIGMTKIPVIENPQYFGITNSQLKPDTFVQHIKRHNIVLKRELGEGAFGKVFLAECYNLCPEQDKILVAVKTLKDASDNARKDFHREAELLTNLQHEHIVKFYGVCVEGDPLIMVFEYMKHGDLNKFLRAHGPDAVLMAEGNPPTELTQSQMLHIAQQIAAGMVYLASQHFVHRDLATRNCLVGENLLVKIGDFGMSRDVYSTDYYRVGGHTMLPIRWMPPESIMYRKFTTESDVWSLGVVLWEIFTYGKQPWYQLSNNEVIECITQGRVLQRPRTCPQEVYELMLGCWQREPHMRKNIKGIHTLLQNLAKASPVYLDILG

SMILES strings stand for the structures.

Sequence of Ribosomal protein S6 kinase alpha-3 (Homo sapiens) (P51812 whole entry): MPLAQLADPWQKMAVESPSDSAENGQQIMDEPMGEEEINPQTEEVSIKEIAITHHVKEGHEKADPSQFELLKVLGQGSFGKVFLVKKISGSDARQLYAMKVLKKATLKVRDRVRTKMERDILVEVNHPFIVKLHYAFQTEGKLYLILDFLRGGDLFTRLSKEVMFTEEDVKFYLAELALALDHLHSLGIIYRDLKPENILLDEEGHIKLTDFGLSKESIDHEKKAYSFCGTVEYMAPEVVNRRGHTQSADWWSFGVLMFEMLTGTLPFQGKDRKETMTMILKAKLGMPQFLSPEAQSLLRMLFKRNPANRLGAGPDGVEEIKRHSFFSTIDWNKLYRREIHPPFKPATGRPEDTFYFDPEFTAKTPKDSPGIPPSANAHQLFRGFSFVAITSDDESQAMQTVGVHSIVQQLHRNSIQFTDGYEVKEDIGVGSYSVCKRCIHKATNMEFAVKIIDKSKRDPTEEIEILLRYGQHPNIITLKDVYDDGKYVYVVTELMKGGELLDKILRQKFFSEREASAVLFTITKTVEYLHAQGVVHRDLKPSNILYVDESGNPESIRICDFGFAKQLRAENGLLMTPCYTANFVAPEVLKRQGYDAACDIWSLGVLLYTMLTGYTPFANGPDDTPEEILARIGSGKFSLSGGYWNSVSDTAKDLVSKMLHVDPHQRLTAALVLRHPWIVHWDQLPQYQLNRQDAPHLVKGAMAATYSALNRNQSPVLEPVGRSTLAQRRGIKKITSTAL
Sequence of Glycogen synthase kinase-3 beta (P49841 whole entry, looked up): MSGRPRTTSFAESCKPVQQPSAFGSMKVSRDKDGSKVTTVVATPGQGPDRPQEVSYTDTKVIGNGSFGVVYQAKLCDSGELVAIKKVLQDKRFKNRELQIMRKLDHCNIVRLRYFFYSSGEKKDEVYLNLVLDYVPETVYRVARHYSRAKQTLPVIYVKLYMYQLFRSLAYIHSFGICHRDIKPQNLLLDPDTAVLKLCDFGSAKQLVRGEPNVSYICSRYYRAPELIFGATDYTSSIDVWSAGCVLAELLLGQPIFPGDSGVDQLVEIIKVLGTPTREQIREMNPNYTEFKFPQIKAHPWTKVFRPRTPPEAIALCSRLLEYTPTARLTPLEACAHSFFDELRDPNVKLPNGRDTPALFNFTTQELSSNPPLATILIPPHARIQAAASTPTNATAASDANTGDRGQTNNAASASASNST
Sequence of Serine/threonine-protein kinase PAK 2 (Homo sapiens) (Q13177 whole entry): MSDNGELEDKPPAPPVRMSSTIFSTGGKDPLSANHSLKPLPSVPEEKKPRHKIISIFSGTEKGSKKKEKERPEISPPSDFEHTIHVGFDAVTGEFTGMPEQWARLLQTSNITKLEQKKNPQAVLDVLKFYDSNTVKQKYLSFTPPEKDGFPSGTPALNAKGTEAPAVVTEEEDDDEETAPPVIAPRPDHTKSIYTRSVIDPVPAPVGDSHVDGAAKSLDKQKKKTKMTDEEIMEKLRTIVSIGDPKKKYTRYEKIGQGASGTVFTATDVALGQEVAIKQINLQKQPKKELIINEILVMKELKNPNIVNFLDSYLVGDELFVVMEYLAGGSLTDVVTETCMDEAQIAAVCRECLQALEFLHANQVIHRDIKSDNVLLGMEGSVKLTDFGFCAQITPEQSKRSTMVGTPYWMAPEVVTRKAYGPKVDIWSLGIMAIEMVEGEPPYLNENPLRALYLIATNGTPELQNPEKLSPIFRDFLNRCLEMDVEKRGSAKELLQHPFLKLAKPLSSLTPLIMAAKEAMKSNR
Sequence of Protein kinase C delta type (Homo sapiens) (Q05655 whole entry, looked up): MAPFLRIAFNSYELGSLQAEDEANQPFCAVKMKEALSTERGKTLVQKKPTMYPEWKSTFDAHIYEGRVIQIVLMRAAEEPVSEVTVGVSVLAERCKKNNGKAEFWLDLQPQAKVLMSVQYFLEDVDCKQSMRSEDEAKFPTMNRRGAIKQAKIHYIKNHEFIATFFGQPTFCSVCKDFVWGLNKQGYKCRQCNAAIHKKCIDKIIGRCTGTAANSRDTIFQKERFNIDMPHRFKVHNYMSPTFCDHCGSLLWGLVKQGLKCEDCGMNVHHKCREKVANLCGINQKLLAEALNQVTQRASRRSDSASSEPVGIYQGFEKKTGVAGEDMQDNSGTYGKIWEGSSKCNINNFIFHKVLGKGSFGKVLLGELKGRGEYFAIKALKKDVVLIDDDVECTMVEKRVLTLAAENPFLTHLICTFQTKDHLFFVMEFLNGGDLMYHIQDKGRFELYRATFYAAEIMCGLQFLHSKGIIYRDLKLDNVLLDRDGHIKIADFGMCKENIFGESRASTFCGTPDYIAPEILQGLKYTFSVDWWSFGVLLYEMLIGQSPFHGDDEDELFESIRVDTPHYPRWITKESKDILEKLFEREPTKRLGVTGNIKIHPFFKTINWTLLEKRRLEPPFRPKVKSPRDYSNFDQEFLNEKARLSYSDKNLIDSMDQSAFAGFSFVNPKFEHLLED

On to `CN(C)c1nc2ccc1CCCn1cc(c3ccccc31)C1=C(C(=O)NC1=O)c1cn(c3ccccc13)CC2`, for which the residual activity in [1] is 94%; in the assay filed under Homo sapiens [2] it was 93%; in assay [3], 68%; in [4] it was 91%; in [5] it was 1%; in assay [6], 98%. Moreover, the residual activity in the assay listed under Homo sapiens [7] came to 59%; in assay [8] it was 76%; in [9] it was 107%; in assay [10] it was 105%; in the assay filed under Rattus norvegicus, 92%; in [11], 93%. For the same compound, the residual activity worked out at 103% in assay [12]; 93% in assay [13]; 33% in assay [14]; 110% in assay [15]; 101% in [16]; 99% in [17]. Moreover, the residual activity in [18] came out at 73%; in assay [19], 79%.

For `O=C1NC(=O)C2=C1c1cn(c3ccccc13)CCCc1cc(nc(N3CCCC3)c1)CCCn1cc2c2ccccc21`, the residual activity is 99% in assay [1]; 105% in assay [20]; 103% in the assay listed under Homo sapiens [2]; 82% in assay [3]; 99% in [4]; 3% in assay [5]. Besides, the residual activity was found to be 104% in [6]; 86% in the assay filed under Homo sapiens [7]; 91% in assay [8]; 112% in [9]; 106% in assay [10]; 109% in the assay listed under Rattus norvegicus. The residual activity in assay [11] was found to be 109%; in assay [12], 100%; in assay [13] it was 100%; in assay [14], 5%; in assay [15], 107%; in assay [16] it was 102%. The values for the residual activity in assay [17], in assay [18] and in [19] were 99%, 104% and 117%, respectively.

For `CN(C)c1cc2cc(n1)CCCn1cc(c3ccccc31)C1=C(C(=O)NC1=O)c1cn(c3ccccc13)CCC2`, the residual activity in assay [1] stood at 101%; in [20], 98%; in the assay filed under Homo sapiens [2] it was 106%; in assay [3], 74%; in assay [4] it was 107%; in assay [5], 1%. Besides, the residual activity in [6] came out at 108%; in the assay listed under Homo sapiens [7], 89%; in assay [8] it was 93%; in assay [9], 111%; in [10], 106%; in the assay filed under Rattus norvegicus, 107%. The residual activity was determined as 105% in assay [11]; 84% in assay [12]; 103% in assay [13]; 5% in [14]; 103% in assay [15]; 104% in assay [16]. In addition, the residual activity in assay [17] was determined as 105%; in assay [18], 100%; in assay [19], 108%.

As to `O=C1NC(=O)C2=C1c1cn(c3ccccc13)CCCc1ccc(c(N3CCCC3)n1)CCCn1cc2c2ccccc21`, the residual activity in assay [1] is 106%; in assay [20] it was 106%; in the assay listed under Homo sapiens [2], 105%; in [3], 83%; in assay [4], 102%; in assay [5] it was 7%. The residual activity in assay [6] stood at 110%; in the assay listed under Homo sapiens [7] it was 106%; in [9], 109%; in assay [10], 104%; in [11] it was 93%; in [12], 86%. The residual activity in assay [13] was found to be 102%; in assay [14] it was 25%; in assay [15] it was 104%; in [16] it was 102%; in assay [17], 104%; in [18], 91%. Also, in [19], the residual activity turned out to be 105%.

The values are drawn from ChEMBL document CHEMBL1139192, “Novel bis(indolyl)maleimide pyridinophanes that are potent, selective inhibitors of glycogen synthase kinase-3” (Bioorg Med Chem Lett, 2007).
